According to patent publication US8551999B2, “Heterocyclic compound and pharmaceutical composition thereof” (Otsuka Pharmaceutical Co., Ltd., priority 2007, dated 2013):

SMILES	melting point
Br.Cn1c(C(=O)N2CCN(Cc3ccc4c(c3)OCO4)CC2)cc2cc(Oc3ccc(NC(=O)c4ccc(-n5cccc5)cc4)cn3)ccc21 [Example 11, N-{6-[2-(4-Benzo[1,3]dioxol-5-ylmethylpiperazine-1-carbonyl)-1-methyl-1H-indol-5-yloxy]pyridin-3-yl}-4-pyrrol-1-ylbenzamide hydrobromide]	227 to 232 °C (dec.)
Cl.Cn1c(C(=O)N2CCN(Cc3ccc(OCC(F)(F)F)cc3)CC2)cc2ccc(Oc3ccc(NC(=O)c4ccc(C(F)(F)F)c(F)c4)cn3)cc21	259 to 263.2 °C
Cc1ccc(C(=O)N(C)c2ccc(Oc3ccc4cc(C(=O)N5CCN(Cc6ccc(OCC(F)F)cc6)CC5)n(C)c4c3)nc2)cc1.Cl	207.8 to 209.3 °C
Cc1cc(C(F)(F)F)ccc1C(=O)Nc1ccc(Oc2ccc3cc(C(=O)N4CCN(Cc5ccc(OC(C)C)cc5)CC4)n(C)c3c2)nc1.Cl	197.7 to 199.3 °C
Cc1cc(C(F)(F)F)ccc1C(=O)Nc1ccc(Oc2ccc3cc(C(=O)N4CCN(Cc5ccc6c(c5)OC(F)(F)O6)CC4)n(C)c3c2)nc1.Cl	207.9 to 211.5 °C

Continued, values first:

melting point	SMILES
167 to 168.1 °C	CN(c1ccc(Oc2ccc3cc(C(=O)N4CCN(Cc5ccc(OCC(F)(F)F)cc5)CC4)[nH]c3c2)nc1)S(C)(=O)=O [Example 285, N-Methyl-N-[6-(2-{4-[4-(2,2,2-trifluoroethoxy)benzyl]piperazine-1-carbonyl}-1H-indol-6-yloxy)pyridin-3-yl]methanesulfonamide]
198.3 to 200.3 °C	Cc1ccc(S(=O)(=O)Nc2ccc(Oc3ccc4cc(C(=O)N5CCN(Cc6ccc(OCC(F)(F)F)cc6)CC5)n(C)c4c3)nc2)cc1 [Example 71, 4-Methyl-N-[6-(1-methyl-2-{4-[4-(2,2,2-trifluoroethoxy)benzyl]-piperazine-1-carbonyl}-1H-indol-6-yloxy)pyridin-3-yl]benzene-sulfonamide]
149.9 to 151.3 °C	CN(c1ccc(Oc2ccc3cc(C(=O)N4CCN(Cc5ccc6c(c5)OC(F)(F)O6)CC4)n(C)c3c2)nc1)S(=O)(=O)c1ccc(Cl)c(Cl)c1 [Example 508, 3,4-Dichloro-N-(6-{2-[4-(2,2-difluorobenzo[1,3]dioxol-5-yl-methyl)piperazine-1-carbonyl]-1-methyl-1H-indol-6-yloxy}pyridin-3-yl)-N-methylbenzenesulfonamide]
237.8 to 240.1 °C	Br.Cn1c(C(=O)N2CCN(Cc3ccc(OCC(F)(F)F)cc3)CC2)cc2ccc(Oc3ccc(NS(C)(=O)=O)cn3)cc21 [Example 76, N-[6-(1-Methyl-2-{4-[4-(2,2,2-trifluoroethoxy)benzyl]piperazine-1-carbonyl}-1H-indol-6-yloxy)pyridin-3-yl]methanesulfonamide hydrobromide]
218 to 220 °C	Br.CN(C(=O)c1ccc(C(F)(F)F)cc1)c1ccc(Oc2ccc3c(c2)cc(C(=O)N2CCN(Cc4ccc(F)cc4)CC2)n3C)nc1 [Example 549, N-(6-{2-[4-(4-Fluorobenzyl)piperazine-1-carbonyl]-1-methyl-1H-indol-5-yloxy}pyridin-3-yl)-N-methyl-4-trifluoromethylbenzamide hydrobromide]
160 to 161 °C	COc1ccc(CN2CCN(C(=O)c3cc4cc(Oc5ncc(N(C)C(=O)c6ccc(C(F)(F)F)cc6)cn5)ccc4n3C)CC2)cc1.O=C(O)/C=C\C(=O)O [Example 381, N-(2-{2-[4-(4-Methoxybenzyl)piperazine-1-carbonyl]-1-methyl-1H-indol-5-yloxy}pyrimidin-5-yl)-N-methyl-4-trifluoromethylbenzamide maleate]
168 to 170 °C	CCOc1ccc(CN2CCN(C(=O)c3cc4cc(Oc5ccc(N(C)C(=O)c6ccc(Cl)c(Cl)c6)cn5)ccc4n3C)CC2)cc1.CS(=O)(=O)O [Example 361, 3,4-Dichloro-N-(6-{2-[4-(4-ethoxybenzyl)piperazine-1-carbonyl]-1-methyl-1H-indol-5-yloxy}pyridin-3-yl)-N-methylbenzamide methanesulfonate]
